Results: patent publication EP1344776A1, “5- 2-hydroxy-3-[1-(3-trifluoromethylphenyl)-cyclopropyl]-propionylamino -phtalide and 6- 2-hydroxy-3-[1-(3-trifluoromethylphenyl)-cyclopropyl]-propionylamino -4-methyl-2,3-benzoxazin-1-one derivatives with progesterone receptor modulating activity for use in fertility control, hormone replacement …” (Schering Aktiengesellschaft, priority 2002, dated 2003)

Key:
rat mammary epithelium = test: Bioassay on proliferating/differentiating effects in the rat mammary epithelium (whole mount staining); type: in vivo
Procedure: The object of this test is to evaluate the effect of progestins on the development of the mammary gland, in particular on the formation of terminal end buds in the mammary gland in estrogen primed rats.
Premature female rats (Wistar Han, SPF) are ovariectomized at the age of 21 days, 4 to 6 days before treatment start. The animals are treated for 6 days with standard estrogen (estrone, 70 µg/kg) and the test progestin (application volume: 0.1 ml/50g body weight; vehicle: benzylbenzoate/castor oil (1+4 v/v); subcutaneous). Control groups are e.g.: vehicle, estrone without progestin, estradiol together with a known progestin, e.g. R5020 (promegestone). After the 6-day treatment the animals are killed with carbon dioxide.
For the whole mount staining, animals are shaved in the left abdominal inguinal mammary region, which is cut from the body together with the skin. For the histological/immunohistochemical analyses the right abdominal inguinal mammary gland is cut from the body together with the connective tissue adhered thereto and fixed in 3.7 % formalin in PBS (phosphate buffer saline; without Ca^2+/Mg^2+).
The preparations are fixed over night in alcohol-formalin according to the method of Tellyesniczky (see below). Then the mammary gland tissue and subcutis adhered thereto are stripped from the cutis and the preparations are again fixed over night. The further steps are as follows: ethanol 70 %: 1.5 hours; acetone: 3 × 1.5 hours; acetone: over night; isopropanol: 1.5 hours; ethanol 96 %: 2 hours; hematoxylin-iron: 3 hours; VE water: first rinse the preparations and then 2 × 0.5 hours; ethanol 70 %: over night; ethanol 80 %: 1.5 hours; ethanol 96 %: 1.5 hours; isopropanol: 1.5 hours. The preparations are then moved to petri dishes and left in toluene for approximately 1 hour, i.e. until they have stopped to swim up. Then the preparations are treated with cedarwood oil (Merck, no. 1.06965). The incubation times above are minimum times and can be extended. In particular, incubation in ethanol 70 % after fixation can be extended to at least 2.5 weeks.
Preparation of the solutions necessary for the whole mount staining: • a) Alcohol-formalin according to Tellyesniczky: formaldehyde 37%: 81.8 ml, ethanol 70 %: 1636 ml, glacial acetic acid (to be added shortly before use): 81.8 ml (total: 1800 ml). • b) Hematoxylin mother solution: Hematoxylin (Merck, no. 1.15938): 10 g, ethanol 96 %: 100 ml. The solution must stand for 48 hours at 37 °C before use. It can be kept in a dark place for almost unlimited time. • c) Hematoxylin-iron solution for use: hematoxylin mother solution (filtered): 15.2 ml, ethanol 96 %: 1374 ml, FeCl3 x 6 H2O (s. 4): 91.1 ml, 1 mol/l HCl: 220 ml (total: 1700 ml); adjustment to a pH of 1.25 with 2mol/l NaOH. • d) FeCl3 x 6 H2O solution: FeCl3 x 6 H2O (Merck, no. 1.03943): 1.07 g, VE water: 90.2 ml, HCl: 37 %: 0.92 ml (total: 91.1 ml).
By means of a 40-fold magnification, the terminal end buds near the nipple in direction of the tail are counted. The area to be investigated should be about 1.8 mm^2. For well-differentiated preparations this area may be reduced, with at least 250 buds to be counted. After counting, the number of end buds per 1 mm^2 is calculated. […]

[1] = tested on: Pregnant rats (Wistar Han, SPF); test: Pregnancy maintenance test in rat; type: in vivo
Description: In rats, castration induces termination of pregnancy. Progestins (combined with estrogens) are capable of maintaining pregnancy in castrated animals. However, the degree of pregnancy maintenance in castrated rats is optimal only in a defined dose range. Therefore, higher as well as lower doses generally induce a weaker effect. Accompanying treatment with defined doses of estrone (E1) increases the pregnancy maintaining effect of progestins.
Pregnant rats (Wistar Han, SPF) of 190 to 220 g (5 to 8 animals per dose) are ovariectomized on day 8 of pregnancy, 2 hours after the first substance administration. From day 8 to day 14, rats are daily treated with test progestin in combination with a standard dose of E1. One day later, animals are killed with carbon dioxide. For each animal, the number of living and dead fetuses is determined according to the heartbeat of the embryos. In case of empty uteri, the number of implantation sites is determined by means of staining with a 10 % ammonium sulfide solution.
S.c. (subcutaneous) application: The test progestin is dissolved in benzyl benzoate/castor oil (1+4 v/v), and the daily dose is administered in a volume of 1 ml/kg body weight.
P.o. (peroral) application: The test progestin is suspended in a carrier liquid (85 mg Myrj^R in 100 ml 0.9 % w/v NaCl solution), and the daily dose is administered in a volume of 2 ml/kg body weight.
I.p. (intraperitoneal) application: The test progestin is dissolved in propylene glycol and charged in miniature osmotic pumps (type 2001, 1.0 µl/h, 7 days), which are placed in the abdominal cavity of the rat.
The standard dose of estrone is 0.005 mg/kg body weight s.c. and is dissolved in benzyl benzoate/castor oil ([…]).
It is determined the pregnancy maintenance per animal [%], the pregnancy maintenance per dose (median of single values) and the ED50 (dose, at which pregnancy is maintained in 50 % of the animals; 100 % corresponds to control animals that are not ovariectomized).

[2] = biological target: T1, glucocorticoid receptor (GR) (Homo sapiens, UniProt P04150); test: Glucocorticoid receptor binding
T1 sequence (P04150 1-777): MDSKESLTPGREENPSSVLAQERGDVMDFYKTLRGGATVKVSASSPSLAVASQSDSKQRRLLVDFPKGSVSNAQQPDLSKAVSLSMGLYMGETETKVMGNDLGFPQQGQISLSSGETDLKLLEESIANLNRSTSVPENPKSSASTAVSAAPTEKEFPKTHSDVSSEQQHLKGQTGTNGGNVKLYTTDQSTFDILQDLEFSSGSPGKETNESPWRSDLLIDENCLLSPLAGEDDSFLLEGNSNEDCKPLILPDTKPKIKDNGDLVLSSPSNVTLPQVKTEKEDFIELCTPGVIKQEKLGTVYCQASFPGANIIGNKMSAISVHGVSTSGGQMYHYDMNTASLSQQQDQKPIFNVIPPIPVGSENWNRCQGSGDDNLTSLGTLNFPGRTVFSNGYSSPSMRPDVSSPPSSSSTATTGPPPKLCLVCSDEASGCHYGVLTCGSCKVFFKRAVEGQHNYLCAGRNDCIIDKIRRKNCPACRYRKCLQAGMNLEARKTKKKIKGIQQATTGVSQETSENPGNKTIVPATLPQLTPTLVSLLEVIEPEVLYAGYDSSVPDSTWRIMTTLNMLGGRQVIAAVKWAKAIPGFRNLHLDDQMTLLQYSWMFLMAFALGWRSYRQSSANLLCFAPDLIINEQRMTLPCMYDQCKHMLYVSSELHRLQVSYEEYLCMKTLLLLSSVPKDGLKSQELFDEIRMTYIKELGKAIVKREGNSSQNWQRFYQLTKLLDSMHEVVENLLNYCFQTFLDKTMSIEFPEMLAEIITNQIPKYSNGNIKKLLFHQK

O=C1OCc2cc(NC(=O)C(O)(CC3(c4cc(C(F)(F)F)ccc4F)CC3)C(F)(F)F)ccc21 (single isomer, unassigned; (+)) [((+)-1), (+)-5-{2-hydroxy-3-[1-(2-fluoro-5-trifluoromethylphenyl)-cyclopropyl]-2-trifluoromethyl-propionylamino}-phthalide]
Mammary gland, whole mount staining (rat) [equi-efficient dose], factor compared to R5020 (rat mammary epithelium; median of three independent tests): ca. 1 | effects at the mammary gland (rat mammary epithelium; rat, amount suitable for maintaining pregnancy): no effects at the mammary gland are observed | Mammary gland, whole mount staining (rat) [equi-efficient dose] (rat mammary epithelium; terminal end buds, dose pair with 0.1 mg/kg R5020, independent test): 0.03 mg/kg | Maintenance of pregnancy (rat) [ED50] ([1]; ovariectomized pregnant rats, with estrone): 0.012 mg/kg | potency compared to levonorgestrel (LNG), pregnancy maintenance test ([1]; rat, times more potent than LNG): about 10 | androgenic activity in pregnancy maintenance test ([1]; rats, dose 100 times higher than the dose required for maintaining pregnancy): no androgenic activity | affinity for the glucocorticoid receptor (GR) [2]: very high
